These results are taken from patent US6706750B1, “Indole derivatives process for their preparation, pharmaceutical compositions containing them and their medicinal application” (priority 1999, dated 2004).

As usually defined, the pKi is the negative decadic logarithm of the Ki, by convention in mol/L. For orientation: pEC50 means the EC50 on a negative log10 scale, so that one unit is a factor of ten. In general, melting point refers to the temperature, or range, at which the solid turns liquid.

pEC50, pKi: −log10 of the molar value. Read-outs that look alike come from different tables or passages of the source.

The target of data set [1] is T1, 5-HT2C receptor (Homo sapiens, UniProt P28335).
T1 construct: expressed in transfected cells; host or cells: CHO cell line
T1 sequence (P28335 33-458): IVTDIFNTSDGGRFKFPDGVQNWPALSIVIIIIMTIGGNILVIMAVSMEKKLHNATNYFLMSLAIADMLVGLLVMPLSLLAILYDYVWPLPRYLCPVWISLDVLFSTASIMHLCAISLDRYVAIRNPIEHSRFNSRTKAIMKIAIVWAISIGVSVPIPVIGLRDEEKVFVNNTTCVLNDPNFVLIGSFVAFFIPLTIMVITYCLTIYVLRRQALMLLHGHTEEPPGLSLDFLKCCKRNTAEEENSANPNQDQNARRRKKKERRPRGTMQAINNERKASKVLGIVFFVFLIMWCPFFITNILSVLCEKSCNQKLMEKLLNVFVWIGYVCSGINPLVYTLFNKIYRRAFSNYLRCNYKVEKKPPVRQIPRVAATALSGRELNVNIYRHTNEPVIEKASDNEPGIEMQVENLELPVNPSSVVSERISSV
In words: Radioligand binding to the 5-HT2C receptor ([3H]-5-HT, CHO cell line). As to the method: (§1) 1. Binding to Serotonin Receptors
(§2) The binding of compounds of formula (I) to serotonin receptors was determined in vitro by standard methods. The preparations were investigated in accordance with the assays given hereinafter.
Method (a): For the binding to the 5-HT2C receptor the 5-HT2C receptors were radiolabelled with [^3H]-5-HT. The affinity of the compounds for 5-HT2C receptors in a CHO cell line was determined according to the procedure of D. Hoyer, G. Engel and H.O. Kalkman, European J. Pharmacol., 1985, 118, 13-23.

Data set [2] deals with T2, h5-HT2A receptors (Homo sapiens, UniProt P28223).
T2 construct: expressed in transfected cells; host or cells: CHO cells
Put plainly: Functional activity, FLIPR calcium assay in CHO cells expressing h5-HT2A. It counts as cell-based. As to the method: (§3) The functional activity of compounds of formula (I) was assayed using a Fluorimetric Imaging Plate reader (FLIPR) in the following manner.
(§4) CHO cells expressing either the h5-HT2C or h5-HT2A receptors were counted and plated into standard 96 well microtitre plates before the day of testing to give a confluent monolayer. The following day the cells were dye loaded with the calcium sensitive dye Fluo 3-AM by incubation with serum free culture maintenance media containing pluronic acid and Fluo 3-AM dissolved in DMSO at 37° C. in a CO2 incubator at 95% humidity for approximately 90 minutes. Unincorporated dye was removed by washing with Hanks balanced salt solution containing 20 mM HEPES and 2.5 mM probenecid (the assay buffer) using an automated cell washer to leave a total volume of 100 μL/well.
(§5) The drug (dissolved in 50 μL of assay buffer) was added at a rate of 70 μL/sec to each well of the FLIPR 96 well plate during fluorescence measurements. The measurements are taken at 1 sec intervals and the maximum fluorescent signal was measured (approx 10-15 secs after drug addition) and compared with the response produced by 10 μM 5-HT (defined as 100%) to which it is expressed as a percentage response (relative efficacy). Dose response curves were constructed using Graphpad Prism (Graph Software Inc.).

In data set [3] the target is T3, h5-HT2C (Homo sapiens, UniProt P28335).
T3 construct: expressed in transfected cells; host or cells: CHO cells
T3 sequence (P28335 33-458): T1 sequence (P28335 33-458)
Put plainly: Functional activity, FLIPR calcium assay in CHO cells expressing h5-HT2C. The data set is classed as cell-based. Here is the method: as §3, §4, §5

Data set [4] addresses T4, 5-HT2A receptor (Homo sapiens, UniProt P28223).
T4 construct: expressed in transfected cells; host or cells: CHO cell line
In words: Radioligand binding to the 5-HT2A receptor ([125I]-DOI, CHO cell line). As to the method: as §1, §2
Method (c): For the binding to the 5-HT2A receptor the 5-HT2A receptors were radiolabelled with [^125I]-DOI. The affinity of the compounds for 5-HT2A receptors in a CHO cell line was determined according to the procedure of D. J. McKenna and S. J. Peroutka, J. Neurosci., 1989, 9/10, 3482-90.

In data set [5] the target is T5, human 5-HT2B receptors (Homo sapiens, UniProt P41595).
T5 construct: expressed in transfected cells; host or cells: CHO cell line
Put plainly: Radioligand binding to the 5-HT2B receptor ([3H]-5-HT, CHO cell line). Here is the method:
as §1, §2
Method (b): For the binding to the 5-HT2B receptor the 5-HT2B receptors were radiolabelled with [^3H]-5-HT. The affinity of the compounds for human 5-HT2B receptors in a CHO cell line was determined according to the procedure of K. Schmuck, C. Ullmer, P. Engels and H. Lubbert, FEBS Lett., 1994, 342, 85-90.

The conditions of data set [6]: cited from earlier work.
For data set [7] the following is noted: cited from earlier work. The source holds these as a separate data set.

T2 sequence (P28223 whole entry): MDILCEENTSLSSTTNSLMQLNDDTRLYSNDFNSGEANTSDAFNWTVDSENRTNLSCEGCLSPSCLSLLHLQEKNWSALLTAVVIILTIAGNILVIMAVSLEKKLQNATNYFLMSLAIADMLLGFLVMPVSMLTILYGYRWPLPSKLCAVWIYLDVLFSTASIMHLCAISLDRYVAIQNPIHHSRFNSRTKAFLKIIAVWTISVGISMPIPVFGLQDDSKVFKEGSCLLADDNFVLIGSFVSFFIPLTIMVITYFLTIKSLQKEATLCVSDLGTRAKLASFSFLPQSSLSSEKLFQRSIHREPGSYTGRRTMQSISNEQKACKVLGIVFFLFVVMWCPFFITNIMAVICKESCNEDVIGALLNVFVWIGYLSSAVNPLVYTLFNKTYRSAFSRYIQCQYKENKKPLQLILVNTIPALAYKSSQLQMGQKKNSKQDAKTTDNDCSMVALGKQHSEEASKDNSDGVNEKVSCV
T4 sequence (P28223 whole entry): as above
T5 sequence (P41595 whole entry): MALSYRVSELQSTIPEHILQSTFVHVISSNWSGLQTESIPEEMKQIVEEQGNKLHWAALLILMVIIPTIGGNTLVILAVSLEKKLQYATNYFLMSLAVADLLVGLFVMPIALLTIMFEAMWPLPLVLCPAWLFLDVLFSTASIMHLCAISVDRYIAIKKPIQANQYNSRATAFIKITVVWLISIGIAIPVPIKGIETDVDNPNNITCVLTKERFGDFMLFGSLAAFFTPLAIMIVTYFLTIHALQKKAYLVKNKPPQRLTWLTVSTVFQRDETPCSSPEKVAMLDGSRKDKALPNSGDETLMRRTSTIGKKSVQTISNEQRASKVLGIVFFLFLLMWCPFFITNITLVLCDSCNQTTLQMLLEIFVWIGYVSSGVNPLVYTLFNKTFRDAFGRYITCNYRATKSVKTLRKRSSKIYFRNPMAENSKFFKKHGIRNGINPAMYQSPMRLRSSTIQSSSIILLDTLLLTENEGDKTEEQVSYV

On to `COc1cc2c(cc1F)c1c(n2C[C@H](C)N)CCC1` [Example 37, (S)-1-(7-fluoro-6-methoxy-1,2,3,4-tetrahydrocyclopent[b]indol-4-yl)-2-propylamine], for which the negative-log Ki (pKi) in data set [1] was 7.39; in data set [4] it was 7.07; in data set [5], 7.19. In addition, the Emax in data set [2] (CHO, maximum fluorescent signal compared with 10 μM 5-HT (defined as 100%), read-out: h5-HT2A Relative Efficacy) is 28%; in data set [3] (CHO, maximum fluorescent signal compared with 10 μM 5-HT (defined as 100%), read-out: h5-HT2C Relative Efficacy), 84%. Moreover, the pEC50 is 5.52 in data set [2] (FLIPR, CHO cells) and 6.90 in data set [3] (FLIPR, CHO cells).
Molecule `C[C@@H](N)Cn1c2c(c3cccc(Cl)c31)CCC2` [Example 43] came in with a melting point of 299 to 302 °C. The molecule also showed a pKi in data set [1] of 7.21. Moreover, the negative-log Ki (pKi) in data set [4] ([125I]-DOI, CHO cell line, read-out: Ki(2A)) is 6.78. Further, the pKi in data set [5] ([3H]-5-HT, human receptor, CHO cell line, read-out: Ki(2B)) was 6.79.
In the case of `FC(F)(F)c1cccc(N2CCNCC2)c1` [TFWPP, trifluoromethylphenylpiperazine], the “food intake in rats” value in data set [6] was “reduce food intake”.
For the molecule `Clc1cccc(N2CCNCC2)c1` [mCPP, m-chlorophenylpiperazine], the “appetite and body weight of obese subjects” value in data set [7] (obese male and female subjects, subchronic treatment for 14 days) was “decreased the appetite and body weight”. Besides, the “food intake in female volunteers” value in data set [7] (single injection, female volunteers) is “decreased food intake”. Moreover, the “food intake in rats” value in data set [6] is “reduce food intake”.
